This is an account of results in patent publication US11642316B2, “Water-soluble curcumin mixture with high bioavailability and preparation method and application thereof” (HENAN ZHONGDA HENGYUAN BIOTECHNOLOGY STOCK CO., LTD., priority 2021, dated 2023).

A short description of the series: Bioavailability test of water-soluble curcumin mixture in rats (plasma, HPLC-MS/MS). Format: in vivo. Particulars: intragastric administration, 200 mg·kg^−1 calculated as curcumin, plasma 0.167-12 h.

Source text: After experimental testing in rats, the bioavailability test method of water-soluble curcumin mixture was verified according to the “Guidelines for Validation of 9012 Biological Sample Quantitative Analysis Method” in the fourth appendix of the Pharmacopoeia of the People's Republic of China (2015 Edition). Specific steps are as follows:
24 Healthy SD (spontaneous mutant Danforth's short tail) rats were randomly divided into 4 groups (6 in each group) after being adaptively reared for one week;
In each group, about 0.3 mL of blood was collected from the orbit at 0.167, 0.5, 1, 1.5, 2, 3, 5, 8 and 12 hours after administration, and centrifuged at 4000 rpm for 10 minutes. The plasma was stored at −20° C. for later use.
Separating 100 μL of plasma, adding 0.3 mL of ethyl acetate, mixing for 2 min, centrifuging at 4000 rpm for 10 min, and separating the supernatant; adding 0.3 mL of ethyl acetate to the precipitate, mixing for 2 min, and centrifuging at 4000 rpm for 10 min, vacuum drying at 40° C. Adding 100 μL of methanol to the residue, wetting the centrifuge tube, mixing for 2 min, filtering with 0.22 μm microporous membrane, analyzing and testing.
HPLC-MS/MS with emodin as the internal standard was used for detection, and DAS2.0 software was used to calculate the pharmacokinetic parameters and compare the relative bioavailability.

In the case of `COc1cc(/C=C/C(=O)CC(=O)/C=C/c2ccc(O)c(OC)c2)ccc1O` [curcumin], the “AUC (012 h)” value (SD rats) was 140.36 ng·h/mL. Besides, the AUC(0-t) (SD, rat, plasma, po, 200 mg/kg, read-out: AUC (012 h)) was 108 ng·h/mL.
